The structures appear in SMILES notation. Where a SMILES comes first, the peptide text is derived from it. [ ]: non-standard residue; d: D form.

One assay has as its target PI3-kinase. To be noted: different cell types (Folks et al., 2008); cited from earlier work.
The subject of another assay is p-AKT. Briefly: Immunoblotting of total cell lysates with anti-phospho-AKT. Format: cell-based. Conditions: ZR-75-1 cells, combined with LY294002 (FIG. 8). The procedure: FIG. 8. ZR-75-1 breast carcinoma cells were treated with GO-203-2C and LY294002 either alone or in combination. Total cell lysates were prepared and analyzed by immunoblotting with anti-phospho-AKT (top panel) or anti-AKT (bottom panel).

Another assay has as its system p-S6K. In words: Immunoblotting of total cell lysates with anti-phospho-S6K. It is filed as cell-based. To be noted: ZR-75-1 cells, combined with GDC-0941 (FIG. 9). The procedure: FIG. 9. ZR-75-1 breast carcinoma cells were treated with GO-203-2C and GDC-0941 either alone or in combination. Total cell lysates were prepared and analyzed by immunoblotting with anti-phospho-S6K (top panel) or anti-S6K (bottom panel).

The test system of assay [1] is H-1650 non small cell lung carcinoma cells. In words: AlamarBlue cell viability assay, H-1650 cells. Format: cell-based. On the procedure:
FIG. 1. H-1650 non small cell lung carcinoma cells in a 96-well plate were treated with various concentrations of purified GO-203-2C for four days. AlamarBlue dye was added to the cells on day 5, and the absorbance was measured at 570 and 600 nm. A 4-parameter curve was obtained by plotting the percentage reduction of alamarBlue calculated using these absorbance values against the concentration of GO-203-2C used.
alamarBlue assay involves the usage of a fluorometric/colorimetric growth indicator, alamarBlue based on the metabolic activity of cells. As cells grow, the innate metabolic activity results in a chemical reduction of alamarBlue. Continued growth maintains a reduced environment while inhibition of growth maintains an oxidized environment. Live cells cause the change of alamarBlue from oxidized (non-fluorescent, blue) form to reduced (fluorescent, red) form. Data can be collected using either fluorescence-based or absorbance-based instrumentation. Fluorescence is monitored at 530-560 nm excitation wavelength and at 590 nm emission wavelength. Absorbance is monitored at 570 am and 600 nm.
This assay was developed with a 96-well plate using ZR-75-1 or MCF-7 (breast carcinoma cell lines) or H1650 non-small cell lung carcinoma cells at different cell concentrations and the optimal cell number was calculated to be 5,000 cells/well in […] volume. The cell number/well has to be optimized for each cell type to be tested. ZR-75-1 or MCF-7 cells were treated with various concentrations of GO-203-2c, LY294002 or GDC-0941 with 2-fold serial dilutions to obtain a total of 8 different concentrations. Cells in triplicate wells were treated with each concentration of GO-203-2c every day, for 4 days. […] At the end of each hour, absorbance of the plate was measured at 570 nm and 600 nm as reference. A set of blank wells was maintained with medium alone and medium with alamarBlue for the purpose of calculating actual absorbance. Obtained absorbance values were plotted against respective concentrations of GO-2-3-2c. […]

Regarding `CS(=O)(=O)N1CCN(Cc2cc3nc(-c4cccc5[nH]ncc45)nc(N4CCOCC4)c3s2)CC1` [GDC-0941], the IC50 on PI3-kinase is 500 to 2000 nM.
For the compound `CC(=O)N[C@H](CCCNC(=N)N)C(=O)N[C@H](CCCNC(=N)N)C(=O)N[C@H](CCCNC(=N)N)C(=O)N[C@H](CCCNC(=N)N)C(=O)N[C@H](CCCNC(=N)N)C(=O)N[C@H](CCCNC(=N)N)C(=O)N[C@H](CCCNC(=N)N)C(=O)N[C@H](CCCNC(=N)N)C(=O)N[C@H](CCCNC(=N)N)C(=O)N[C@H](CS)C(=O)N[C@H](CCC(N)=O)C(=O)N[C@H](CS)C(=O)N[C@H](CCCNC(=N)N)C(=O)N[C@H](CCCNC(=N)N)C(=O)N[C@H](CCCCN)C(=O)N[C@H](CC(N)=O)C(N)=O` [GO-203-2C] (Ac-[dR][dR][dR][dR][dR][dR][dR][dR][dR][dC][dQ][dC][dR][dR][dK][dN]-NH2), the “effect on p-AKT” value in the assay on p-AKT is on record as “contributing to the downregulation”. Further, the “effect on p-S6K” value with p-S6K is “contributing to the downregulation”. In addition, the live cells in assay [1] (at 10 mM) was determined as 12.3%. The “percent reduction of alamarBlue” value in assay [1] (highest concentration tested (10 mM)) is recorded as 6.86%; in assay [1] (lowest concentration tested (0.078 mM), untreated control 55.34%), 55.65%.

Source of the values: patent US9044421B2, “Treating MUC1-expressing cancers with combination therapies” (GENUS ONCOLOGY, LLC., priority 2012, dated 2015).
